In US4921850A, “3-propenylcephem derivative” (Eisai Co., Ltd., priority 1986, dated 1990):
Converted amounts (≈) assume the structure as drawn. Like-named read-outs stand apart in the source and are kept apart here.

Assays:
Experiment in all cases: Anti-bacterial activity (MIC), agar dilution
Format in all cases: cell-based
[1] = test system: Staph. aureus 209-P
Experimental: (§1) MIC (μg/ml) were determined by an agar dilution method [Chemotherapy (Japan), 29, 76-79, 1981]. Overnight cultures of the bacterial strains in Mueller-Hinton broth were diluted to final concentration of about 10^6 CFU/ml, and 5 μl of each bacterial suspension was spotted onto Mueller-Hinton agar plates that contained twofold serial dilutions of antibiotics. MICs were measured after incubation for 18 hours at 37° C.

[2] = test system: Escher. coli NIHJ
Experimental: as §1

[3] = test system: Ser. marcescens ES-75
Experimental: as §1

[4] = test system: Morganella morganii EP-14; details: 37° C.
Experimental: as §1

[5] = test system: Kleb. pneumoniae EK-6; details: Kleb. pneumoniae EK-6, agar dilution, about 10^6 CFU/ml, 18 hours, 37° C.
Experimental: as §1

[6] = test system: Pseud. aeruginosa EP-01
Experimental: as §1

[7] = Staphylococcus aureus, 209P, 18 h, Staph. aureus 209-P, agar dilution, about 10^6 CFU/ml, 18 hours, 37° C., read-out: MIC
[8] = Escherichia coli, 18 h, Escher. coli NIHJ, agar dilution, about 10^6 CFU/ml, 18 hours, 37° C., read-out: MIC
[9] = Serratia marcescens, ES75, 18 h, Ser. marcescens ES-75, agar dilution, about 10^6 CFU/ml, 18 hours, 37° C., read-out: MIC
[10] = Morganella morganii, EP14, 18 h, about 10^6 CFU/ml, read-out: MIC
[11] = Klebsiella pneumoniae, EK6, 18 h, read-out: MIC
[12] = Pseudomonas aeruginosa, EP01, 18 h, Pseud. aeruginosa EP-01, agar dilution, about 10^6 CFU/ml, 18 hours, 37° C., read-out: MIC
[13] = Staph. aureus 209-P, agar dilution, about 10^6 CFU/ml, 18 hours, 37° C.
[14] = Escher. coli NIHJ, agar dilution, about 10^6 CFU/ml, 18 hours, 37° C.
[15] = Ser. marcescens ES-75, agar dilution, about 10^6 CFU/ml, 18 hours, 37° C.
[16] = Pseud. aeruginosa EP-01, agar dilution, about 10^6 CFU/ml, 18 hours, 37° C.
[17] = Staphylococcus aureus, 209P, 18 h
[18] = Serratia marcescens, ES75, 18 h

| SMILES | MIC [1, 7] [µg/mL] | MIC [2, 8] [µg/mL] | MIC [3, 9] [µg/mL] | MIC [4, 10] [µg/mL] | MIC [5, 11] [µg/mL] | MIC [6, 12] [µg/mL] | MIC [1, 13] [µg/mL] | MIC [2, 14] [µg/mL] | MIC [3, 15] [µg/mL] | MIC ([4]; about 10^6 CFU/ml, 18 hours) [µg/mL] | MIC [5] [µg/mL] | MIC [6, 16] [µg/mL] | further results |
| --- | --- | --- | --- | --- | --- | --- | --- | --- | --- | --- | --- | --- | --- |
| CN1CCC[N+]1(C)C/C=C/C1=C(C(=O)[O-])N2C(=O)[C@@H](NC(=O)/C(=N\OCF)c3nsc(N)n3)[C@H]2SC1 (single isomer, unassigned) [Example 122-A, 7β-[2-(5-Amino-1,2,4-thiadiazol-3-yl)-(Z)-2-fluoromethoxyiminoacetamido]-3-[(E)-3-(1,2-dimethyl-1-pyrazolidinio)-1-propen-1-yl]-3-cephem-4-carboxylate] | 0.2 (≈ 0.37 µM) | ≤ 0.025 | ≤ 0.025 | ≤ 0.025 | ≤ 0.025 | 0.8 (≈ 1.48 µM) | – | – | – | – | – | – | – |
| CN1CCC[N+]1(C)C/C=C/C1=C(C(=O)[O-])N2C(=O)[C@@H](NC(=O)/C(=N\OCF)c3nsc(N)n3)[C@H]2SC1 (single isomer, unassigned) [Example 122-B, 7β-[2-(5-Amino-1,2,4-thiadiazol-3-yl)-(Z)-2-fluoromethoxyiminoacetamido]-3-[(E)-3-(1,2-dimethyl-1-pyrazolidinio)-1-propen-1-yl]-3-cephem-4-carboxylate] | – | – | – | – | – | – | 0.1 (≈ 0.185 µM) | ≤ 0.025 | 0.05 (≈ 0.0925 µM) | ≤ 0.025 | ≤ 0.025 | 0.8 (≈ 1.48 µM) | – |
| CN1CCC[N+]1(C)C/C=C/C1=C(C(=O)[O-])N2C(=O)[C@@H](NC(=O)/C(=N\OCC#N)c3nsc(N)n3)[C@H]2SC1 (single isomer, unassigned) [Example 160-A] | 0.1 (≈ 0.183 µM) | ≤ 0.025 | 0.1 (≈ 0.183 µM) | 0.05 (≈ 0.0913 µM) | ≤ 0.025 | 0.8 (≈ 1.46 µM) | – | – | – | – | – | – | – |
| CN1CCC[N+]1(C)C/C=C/C1=C(C(=O)[O-])N2C(=O)[C@@H](NC(=O)/C(=N\OCC#N)c3nsc(N)n3)[C@H]2SC1 (single isomer, unassigned) [Example 160-B] | – | – | – | – | – | – | 0.1 (≈ 0.183 µM) | 0.05 (≈ 0.0913 µM) | 0.2 (≈ 0.365 µM) | 0.05 (≈ 0.0913 µM) | 0.05 (≈ 0.0913 µM) | 0.8 (≈ 1.46 µM) | – |
| CC(C)(O/N=C(\C(=O)N[C@@H]1C(=O)N2C(C(=O)[O-])=C(C[n+]3ccccc3)CS[C@H]12)c1csc(N)n1)C(=O)O [CAZ, Cefatazidime, reference compound] | – | 0.2 (≈ 0.366 µM) | – | 0.1 (≈ 0.183 µM) | 0.1 (≈ 0.183 µM) | – | – | – | – | – | – | – | MIC [1, 17]: 6.25 µg/mL (≈ 11.4 µM); MIC [3, 18]: 0.2 µg/mL (≈ 0.366 µM); MIC ([6]; Pseudomonas aeruginosa, EP01, 18 h): 1.56 µg/mL (≈ 2.85 µM) |
| CN(C)CCn1nnnc1SCC1=C(C(=O)O)N2C(=O)[C@@H](NC(=O)Cc3csc(N)n3)[C@H]2SC1 [CTM, Cefotiam, reference compound] | 0.2 (≈ 0.38 µM) | 0.1 (≈ 0.19 µM) | 6.25 (≈ 11.9 µM) | 0.2 (≈ 0.38 µM) | 0.1 (≈ 0.19 µM) | > 100 | – | – | – | – | – | – | – |
| CC[N+](C)(C/C=C/C1=C(C(=O)[O-])N2C(=O)[C@@H](NC(=O)/C(=N\OCF)c3nsc(N)n3)[C@H]2SC1)CC(N)=O (stereo partly drawn) [Example 1, 7β-[2-(5-Amino-1,2,4-thiadiazol-3-yl)-(Z)-2-fluoromethoxyiminoacetamido]-3-[(E)-3-(carbamoylmethylethylmethylammonio)-1-propen-1-yl]-3-cephem-4-carboxylate] | – | – | – | – | – | – | – | – | – | – | – | – | MIC [1, 17]: 0.2 µg/mL (≈ 0.359 µM); MIC ([2]; Escherichia coli, 18 h): ≤ 0.025 µg/mL; MIC [3, 18]: 0.1 µg/mL (≈ 0.18 µM); MIC ([4]; EP14, about 10^6 CFU/ml, 18 hours, read-out: MIC): ≤ 0.025 µg/mL; MIC ([5]; Klebsiella pneumoniae, EK6, read-out: MIC): ≤ 0.025 µg/mL; MIC ([6]; Pseudomonas aeruginosa, EP01, Pseud. aeruginosa EP-01, agar dilution, about 10^6 CFU/ml, 18 hours, 37° C., read-out: MIC): 0.8 µg/mL (≈ 1.44 µM) |
| CC(O)C[N+](C)(C)C/C=C/C1=C(C(=O)[O-])N2C(=O)[C@@H](NC(=O)/C(=N\OCF)c3nsc(N)n3)[C@H]2SC1 (stereo partly drawn) [Example 4, 7β-[2-(5-Amino-1,2,4-thiadiazol-3-yl)-(Z)-2-fluoromethoxyiminoacetamido]-3-[(E)-3-[(2-hydroxypropyl)dimethylammonio]-1-propen-1-yl]-3-cephem-4-carboxylate] | 0.4 (≈ 0.736 µM) | 0.05 (≈ 0.092 µM) | 0.1 (≈ 0.184 µM) | 0.05 (≈ 0.092 µM) | ≤ 0.025 | 0.8 (≈ 1.47 µM) | – | – | – | – | – | – | – |
| C[N+]1(C/C=C/C2=C(C(=O)[O-])N3C(=O)[C@@H](NC(=O)/C(=N\OCF)c4nsc(N)n4)[C@H]3SC2)C[C@H](O)C[C@H]1CO (stereo partly drawn) [Example 8, 7β-[2-(5-Amino-1,2,4-thiadiazol-3-yl)-(Z)-2-fluoromethoxyiminoacetamido]-3-[(E)-3-(4R-hydroxy-2S-hydroxymethyl-1-methyl-1-pyrrolidinio)-1-propen-1-yl]-3-cephem-4-carboxylate] | 0.2 (≈ 0.35 µM) | ≤ 0.025 | ≤ 0.025 | ≤ 0.025 | ≤ 0.025 | 0.8 (≈ 1.4 µM) | – | – | – | – | – | – | – |
| NC(=O)C[N+]1(C/C=C/C2=C(C(=O)[O-])N3C(=O)[C@@H](NC(=O)/C(=N\OCF)c4nsc(N)n4)[C@H]3SC2)CCC(O)C1 (stereo partly drawn) [Example 9-2, 7β-[2-(5-Amino-1,2,4-thiadiazol-3-yl)-(Z)-2-fluoromethoxyiminoacetamido]-3-[(E)-3-(1-carbamoylmethyl-3-hydroxy-1-pyrrolidinio)-1-propen-1-yl]-3-cephem-4-carboxylate] | – | – | – | – | – | – | 0.4 (≈ 0.684 µM) | ≤ 0.025 | ≤ 0.025 | ≤ 0.025 | ≤ 0.025 | 0.8 (≈ 1.37 µM) | – |
| NC(=O)C[N+]1(C/C=C/C2=C(C(=O)[O-])N3C(=O)[C@@H](NC(=O)/C(=N\OCF)c4nsc(N)n4)[C@H]3SC2)CCC(O)C1 (stereo partly drawn) [Example 9-3, 7β-[2-(5-Amino-1,2,4-thiadiazol-3-yl)-(Z)-2-fluoromethoxyiminoacetamido]-3-[(E)-3-(1-carbamoylmethyl-3-hydroxy-1-pyrrolidinio)-1-propen-1-yl]-3-cephem-4-carboxylate] | – | – | – | – | – | – | 0.4 (≈ 0.684 µM) | ≤ 0.025 | ≤ 0.025 | ≤ 0.025 | ≤ 0.025 | 0.8 (≈ 1.37 µM) | – |
| N#CC[N+]1(C/C=C/C2=C(C(=O)[O-])N3C(=O)[C@@H](NC(=O)/C(=N\OCF)c4nsc(N)n4)[C@H]3SC2)CCCC1 [Example 14] | 0.2 (≈ 0.363 µM) | – | 0.05 (≈ 0.0908 µM) | ≤ 0.025 | ≤ 0.025 | 0.8 (≈ 1.45 µM) | – | – | – | – | – | – | MIC ([2]; Escherichia coli, 18 h): ≤ 0.025 µg/mL |
| Nc1nc(/C(=N/OCF)C(=O)N[C@@H]2C(=O)N3C(C(=O)[O-])=C(/C=C/C[N+]4(CCO)CCC(O)C4)CS[C@H]23)ns1 (stereo partly drawn) [Example 15-1] | 0.4 (≈ 0.7 µM) | 0.05 (≈ 0.0875 µM) | ≤ 0.025 | ≤ 0.025 | ≤ 0.025 | 1.56 (≈ 2.73 µM) | – | – | – | – | – | – | – |
| Nc1nc(/C(=N/OCF)C(=O)N[C@@H]2C(=O)N3C(C(=O)[O-])=C(/C=C/C[N+]4(CCO)CCC(O)C4)CS[C@H]23)ns1 (stereo partly drawn) [Example 15-2] | – | – | – | – | – | – | 0.4 (≈ 0.7 µM) | ≤ 0.025 | ≤ 0.025 | ≤ 0.025 | ≤ 0.025 | 1.56 (≈ 2.73 µM) | – |
| Nc1nc(/C(=N/OCF)C(=O)N[C@@H]2C(=O)N3C(C(=O)[O-])=C(/C=C/C[N+]4(CCO)CCC[C@@H]4CO)CS[C@H]23)ns1 (stereo partly drawn) [Example 16] | 0.2 (≈ 0.342 µM) | ≤ 0.025 | ≤ 0.025 | ≤ 0.025 | ≤ 0.025 | 0.8 (≈ 1.37 µM) | – | – | – | – | – | – | – |
| NC(=O)C[N+]1(C/C=C/C2=C(C(=O)[O-])N3C(=O)[C@@H](NC(=O)/C(=N\OCF)c4nsc(N)n4)[C@H]3SC2)CCC[C@@H]1CO (stereo partly drawn) [Example 17] | 0.4 (≈ 0.668 µM) | ≤ 0.025 | ≤ 0.025 | ≤ 0.025 | ≤ 0.025 | 0.8 (≈ 1.34 µM) | – | – | – | – | – | – | – |
